The record followed here is patent US4435404A, “Carbostyril derivatives” (priority 1980, dated 1984).

The target in data set [1] is T1, cyclic AMP phosphodiesterase (Oryctolagus cuniculus, UniProt G1ST54).
T1 construct: the supernatant was collected to use it as a crude enzyme solution; from tissue; host or cells: rabbit platelets (from platelet-rich plasma)
T1 sequence (G1ST54 1-1128): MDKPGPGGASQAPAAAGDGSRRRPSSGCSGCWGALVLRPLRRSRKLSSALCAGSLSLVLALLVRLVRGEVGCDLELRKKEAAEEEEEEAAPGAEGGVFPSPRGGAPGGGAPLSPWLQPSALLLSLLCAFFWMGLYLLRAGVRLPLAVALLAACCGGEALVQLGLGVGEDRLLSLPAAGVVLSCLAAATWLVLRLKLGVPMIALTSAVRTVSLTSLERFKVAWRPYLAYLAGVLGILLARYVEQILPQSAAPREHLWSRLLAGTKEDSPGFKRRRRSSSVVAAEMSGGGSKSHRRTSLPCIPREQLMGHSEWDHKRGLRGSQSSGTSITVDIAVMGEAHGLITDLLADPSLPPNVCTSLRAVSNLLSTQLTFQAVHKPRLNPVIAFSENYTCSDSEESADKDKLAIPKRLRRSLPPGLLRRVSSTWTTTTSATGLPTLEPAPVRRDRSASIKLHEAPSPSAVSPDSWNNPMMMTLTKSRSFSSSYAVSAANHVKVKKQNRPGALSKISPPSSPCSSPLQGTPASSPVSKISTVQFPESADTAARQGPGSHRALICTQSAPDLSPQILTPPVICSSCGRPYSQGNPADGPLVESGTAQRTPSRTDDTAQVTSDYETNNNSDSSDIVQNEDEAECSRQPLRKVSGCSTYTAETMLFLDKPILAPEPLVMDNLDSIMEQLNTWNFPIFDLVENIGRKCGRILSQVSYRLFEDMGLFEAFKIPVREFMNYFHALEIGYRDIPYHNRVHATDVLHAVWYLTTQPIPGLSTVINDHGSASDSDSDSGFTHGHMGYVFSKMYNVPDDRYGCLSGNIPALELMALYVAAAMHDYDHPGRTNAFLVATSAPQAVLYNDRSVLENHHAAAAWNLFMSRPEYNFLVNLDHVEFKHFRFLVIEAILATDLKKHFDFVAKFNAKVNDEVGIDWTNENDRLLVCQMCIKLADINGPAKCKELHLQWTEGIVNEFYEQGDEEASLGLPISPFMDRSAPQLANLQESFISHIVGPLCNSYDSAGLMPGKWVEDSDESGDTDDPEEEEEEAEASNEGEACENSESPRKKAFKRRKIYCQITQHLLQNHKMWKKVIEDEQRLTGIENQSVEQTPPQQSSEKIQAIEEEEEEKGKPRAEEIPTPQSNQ
Kind of data set: Obstructive action against cyclic AMP phosphodiesterase. The format is biochemical. The note with it: rabbit platelet enzyme, 30° C., 20 minutes. How it is done:
That is, for determining the obstructive activity against cyclic AMP phosphodiesterase, 10 ml of a solution obtained by adding 1 mmol of MgCl2 into 50 mmol of tris-hydrochloric acid buffer with pH 7.4 was added to the platelets obtained by further centrifuging the above-said rabbit PRP at 3,000 r.p.m. for 10 minutes, and the suspended platelets were ground by a Teflon potter type homogenizer. This was followed by two times of freezing and thawing treatment and 300-second fracturing with 200 watt supersonic waves. After additional 60-minute centrifugation with 100,000 G, the supernatant was collected to use it as a crude enzyme solution.
10 Milliliters of this crude buffer solution was added to a 1.5×20 cm DEAE-cellulose column which has previously been buffered with 50 mM of tris-acetate buffer (pH 6.0), followed by washing and elution with 30 ml of 50 mM tris-acetate buffer, and this buffer solution was subjected to linear gradient elution with 0 to 0.5 moles of sodium acetate-tris-acetatebuffer (total amount of elute was 300 ml.). The flow rate was 0.5 ml/min, and 5 ml of each fraction was batched out. […] This fraction was used as cyclic AMP phosphodiesterase.
0.1 Milliliter of an aqueous solution of each test compound of a specified concentration was mixed with 40 mmol of tris-hydrochloric acid buffer (pH 8.0, containing 50 μg of cow serum albumin and 4 mmol of MgCl2) containing predetermined 1.0 μmol of cyclic AMP (tritium cyclic AMP), and 0.2 ml of this mixed solution was used as substrate solution.
0.2 Milliliter of the above-prepared cyclic AMP phosphodiesterase of a predetermined concentration was added to said substrate solution and the mixture was reacted at 30° C. for 20 minutes, producing tritium 5'-AMP from the tritium cyclic AMP.
The reaction system was then immersed in boiling water for 2 minutes to stop the reaction, and then this reaction solution was cooled in ice water and, for converting the produced tritium 5'-AMP into tritium adenosine, the solution was added with 0.05 ml (1 mg/ml) of snake poison as 5'-nucleotidase and reacted at 30° C. for 10 minutes. The whole amount of this reaction solution was then added to a cation exchange resin (AG 500 W×4, 200-400 meshes, manufactured by Bio-Rad Co., column size: 0.5×1.5 cm), and the produced tritium anodesine alone was allowed to combine, washed with 6 ml of distilled water and eluted with 1.5 ml of 3 N-ammonia water. The whole quantity of the elutant was added with 10 ml of a triton-toluene type scintillator and the produced tritium adenosine was measured by a liquid scintillation counter to determine the phosphodiesterase activity.
In this way, the phosphodiesterase activation value (Vs) of the test compounds of the respective concentrations was determined, and the phosphodiesterase obstruction rate (%) was determined from said activation value (Vs) and control value (Vc) (obtained from water not containing any test compound) from the following formula: [formula] Known 1-methyl-3-isobutylxanthine was used as control.

A further data set in a line: Acute Toxicity Test. The note with it: mouse, in vivo; male mice, oral administration. As to the method:
The test compounds were administered orally to the mice and LD50 (mg/kg) of the compounds was determined.

Regarding `O=C(CCCOc1ccc2[nH]c(=O)ccc2c1)N(CCO)C1CCCCC1` [No. 1, 6-{3-[N-(2-hydroxyethyl)-N-cyclohexylaminocarbonyl]propoxy}carbostyril], the IC50 (usually the midpoint of a concentration-inhibition curve) in data set [1] amounted to 150 nM. Besides, the LD50 (as a rule, the dose at which mortality reaches 50%) in “Acute Toxicity Test” was greater than 1000 mg/kg.
